# According to patent publication US11628164B2, “Composition containing salsolinol for treating liver cancer” (SUNGSHIN WOMEN'S UNIVERSITY R&DB FOUNDATION, priority 2020, dated 2023):
# Assays:
# [1] = tested on: STAT3, pSTAT3, PCNA, 15-PGDH, p53 in SNU387; test: Western blotting of tumor-related genes in SNU387; assay type: cell-based, human; conditions: SNU387, 25 μM salsolinol, 72 hours
# Experimental: 5×10^5 cells of Human-derived liver cancer cell lines SK-Hep1 and SNU387 are cultured in a 60 mm culture vessel, the cells are lysed, and proteins are separated through electrophoresis. And after that, western blotting analysis is performed by using a specific antibody. After treatment of the SK-Hep1 and the SNU387 with the salsolinol at different times and concentrations, the cells are washed with PBS, and the cells are scraped off with a scraper. The cells are lysed in a lysis buffer for 1 hour, and after that, centrifuge separation is performed at 13,000 rpm for 15 minutes at 4° C., and only the supernatant is extracted. 20 μg of protein contained in the supernatant is electrophoresed on SDS-polyacrylamide gel, and after that, transferred to a PVDF membrane for 2 hours. The sample reacts with antibodies pSTAT3(#9145), STAT3(#9132), PCNA(#2586), 15-PGDH(cayman No. 160615), p53(sc-126), p53(sc-99), pAKT(#9271), AKT(#9272), Annexin A2(#8235), and GAPDH(sc-32233). The protein is detected by using an enhanced chemiluminascence (ECL) detection solution. As a result of the above-described experiment, it is confirmed that the activity of cells in the liver cancer cell lines SK-Hep1 is decreased by the salsolinol, and particularly, the specificity for the liver cancer cell lines is confirmed. In order to check the correlation between the decrease in the activity of cells of the liver cancer cell lines by the salsolinol and the gene expression, the SK-Hep1 which is a liver cancer cell line and the SNU387 which is a liver cancer cell line are cultured, and the samples are treated with 25 μM of salsolinol d for 72 hours. After the treatment, changes in the expression levels of tumor-related genes such as STAT3, pSTAT3, PCNA, 15-PGDH, and p53 are checked (refer to FIG. 4).
# SK-Hep1 [2] = conditions: cited from earlier work
# [3] = tested on: DEN-induced liver cancer mouse model (male); test: DEN-induced liver cancer mouse model: liver weight, plasma AFP, tumor number, H&E; assay type: in vivo, C57BL/6 mouse
# Experimental: The mouse used in the experiment are 7-week old male and female C57BL/6 mouse. The mouse is obtained from Orient Bio (ORIENT Bio, Gyeonggi-do Province, Korea) and is adapted in an environment that the contrast is controlled at a temperature of 22±2° C. and a humidity of 55 to 60% in 12-hour increments, and a standard diet is provided for 1 week. All animal experiments are performed in accordance with the regulations of the Laboratory Animal Ethics Committee of Sungshin Women's University. After adapting a male mouse born from the mating of the adapted mouse in the same environment for 2 weeks, a DEN-induced liver cancer mouse model is generated by a method of intraperitoneally administering a liver cancer-causing substance, diethylnitrosamine (DEN, 25 mg/kg). The salsolinol (200 mg/kg) is administered for 6 months through intraperitoneal injection three times per week from the time when the DEN-induced liver cancer mouse model (male) became 7 weeks of age. After the mouse is sacrificed, the experiment is performed. After the experiment is completed, the experimental animals are fasted for 4 hours, sacrificed with CO2 gas, and the blood collected from the heart is heparinized. And after that, centrifuge separation is performed at 3,000 rpm for 15 minutes to separate plasma. AFP (α-Fetoprotein) analysis is measured by enzyme-linked immunosorbent assay (ELISA). The separated plasma is diluted 20 times with a diluted solution, and after that, a 50 μl of standard curve reagent and plasma are inserted into a coated 96-well plate, and after that, the culturing is performed for 2 hours at room temperature. The culture medium is removed, and washing is performed 3 times with 100 μl of wash buffer. After adding 100 μl of prepared AFP conjugate to each well, the culturing is performed for 2 hours at room temperature. The culture medium is removed, and washing is performed 3 times with 100 μl of wash buffer. After adding 100 μl of reaction reagent to each well, the culturing is performed for 30 minutes in a dark place. After adding the same amount of reaction stop reagent to each well, tapping is lightly performed to mix thoroughly. With respect to the degree of reaction, after measuring the absorbance at 450 nm, the concentration of AFP is quantified by using a standard curve of a SpectraMax 190 microplate plate reader (Molecular Devices, LCC. San Jose, Calif.). The liver tissue is separated, the number of tumors is measured, and the degree of tumor formation is illustrated by a picture. After fixing 10% formaldehyde for morphological analysis, a paraffin section slide having a thickness of 4 μm is requested to be manufactured by Notus Co., Ltd. After removing paraffin No. 3 with xylene and re-dehydration in 95% and 70% alcohol, staining is performed by using Mayer's Hematoxylin. A male DEN-induced liver cancer mouse model is prepared by intraperitoneal (IP) administration of DEN 25 mg/kg, and the salsolinol 200 mg/kg is administered intraperitoneally to the model, and an effect of the salsolinol on liver cancer treatment is checked.
# SK-Hep1 [4] = test: Colony formation experiment; assay type: cell-based, human
# Experimental: Among the human-derived liver cancer cell lines, the SK-Hep1, which is a liver cancer cell lines, is dispensed into 96-wells so as to have a concentration of 1×10^4 cells, and then, the SK-Hep1 is treated once every two or three days so that the salsolinol has a concentration of 25 μM or 50 μM. The salsolinol-treated the SK-Hep1 is further cultured for 3 days under the above-mentioned conditions. After that, the SK-Hep1 is fixed with 4% formaldehyde, stained with crystal violet for 2 hours, and after extraction with an acetic acid, the absorbance (570 nm) is measured. After culturing the SK-Hep1 cells at 1×10^4 cells/well for 24 hours, the SK-Hep1 is treated three times at 48 hour intervals with the salsolinol so as to have a concentration of 25 μM or 50 μM, and then the degree of colony formation is checked (refer to FIG. 2). The colony formation experiment for the SK-Hep11 is repeated a total of 4 times, the statistic process is performed, and comparison and analysis are performed. As a result of the experiment, in the case of being treated with the salsolinol having a concentration of 25 μM, it is confirmed that the colony formation ability of the SK-Hep1 is decreased to a level of 50% compared with the SK-Hep1 not treated with the salsolinol. […]
# [5] = SK-Hep1, from KR10-2019-0129765
smiles,measurement,setting,value
"CC1NCCc2cc(O)c(O)cc21 (stereo not shown) [salsolinol, 6,7-dihydroxy-1-methyl-1,2,3,4-tetrahydroisoquinoline]",15-PGDH expression level,[1],remains constant
same,PCNA expression level,[1],rather increased
same,STAT3 expression level,[1],remains constant
same,p53 expression level,[1],not changed
same,pSTAT3 expression level,[1],not decreased
same,STAT3 phosphorylation,"SK-Hep1 [2]; SK-Hep1, from KR10-2019-0129765, 24 hours",increases signal transducer and transcription 3 (STAT3) phosphorylation
same,HO-1 expression,SK-Hep1 [2]; [5],increased
same,cytotoxicity,SK-Hep1 [2]; [5],exhibits cytotoxicity
same,abnormal types of hepatocytes (H&E staining),[3]; DEN+SAL liver tissue,not observed
same,decrease in number of liver cancer tissues compared with DEN model,"[3]; DEN+SAL male mice, salsolinol 200 mg/kg i.p.",about 60%
same,weight of the liver tissue,"[3]; DEN+SAL male mice, salsolinol 200 mg/kg i.p. three times per week, 6 months",slightly equal to that of the normal mouse
same,average number of liver cancer tissues on the liver surface,"[3]; DEN+SAL male mice, salsolinol 200 mg/kg i.p., DEN model about 10",four
same,plasma AFP level (average),"[3]; DEN+SAL male mice, salsolinol 200 mg/kg i.p., normal mouse 50, DEN model 720 ng/ml",200 ng/mL
same,liver cancer tissue on the liver surface,[3]; normal mouse administered with salsolinol alone (SAL),no liver cancer tissue is found
same,colony formation ability compared with untreated SK-Hep1,SK-Hep1 [4]; 25 μM salsolinol,50%
same,colony formation ability compared with untreated SK-Hep1,SK-Hep1 [4]; 50 μM salsolinol,20%
